From patent US10626077B2, “Salvianolic acid compound T, preparation method therefor, and use thereof” (TASLY PHARMACEUTICAL GROUP CO., LTD., priority 2013, dated 2020) come the findings set out here.

The experiment has as its system mice pulmonary fibrosis induced by bleomycin. The experiment in a line: Anti-pulmonary fibrosis experiment in mice induced by bleomycin. In kind it is in vivo, Kunming mice. The note with it: 3 weeks. As for the experimental part: Dividing the 40 mice into 4 groups: □ normal control group, given nasal dripping of normal saline, drenched with normal saline; □ model control group:given nasal dripping of bleomycin, drenched with normal saline; □(S)-salvianolic acid T group (16 mg/kg): given nasal dripping of bleomycin, drenched with (S)-salvianolic acid T solution; □(R)-salvianolic acid T group (16 mg/kg): given nasal dripping of bleomycin, drenched with (R)-salvianolic acid T solution; 10 mice in each group.
On the first day of the experiment, the mice were anesthetized with chloral hydrate, each mouse was given disposable nasal dripping of 50 μg bleomycin to establish the pulmonary fibrosis model. On the second day of the experiment, two treatment groups were drenched with (S)/(R)-salvianolic acid T, the model group and the normal group were drenched with equal volume of normal saline, once each day, 3 consecutive weeks. On the 21th day of the experiment, serum was separated from the blood collected from the orbital vein to detect TGF-β1, the mice were killed to take lungs, ground with double distilled water (the ratio of lungs and double distilled water was 1:5 (w/v)) into tissue homogenate, centrifuged to detect the MDA, superoxide dismutase (SOD), catalase (CAT), peroxidase (POD) in the tissues.

[1] abbreviates: 16 mg/kg, lung tissue homogenate.

Turning to `O=C(/C=C/c1ccc(O)c(O)c1/C(=C\c1ccc(O)c(O)c1)C(=O)O)O[C@H](Cc1ccc(O)c(O)c1)C(=O)O` [(R)-salvianolic acid T], the “Serum TGF-β1” value (16 mg/kg drenched once each day, day 21) turned out to be 254 ± 29 ng/L. Besides, under setting [1], the CAT is 23.1 ± 2.9 U/g, the MDA amounted to 311 ± 29 µg/g, the POD is reported as 16.4 ± 1.9 U/g and the SOD is reported as 52.2 ± 5.1 U/g. Moreover, the “Tissue TGF-β1” value under setting [1] is on record as 562 ± 69 pg/g.
